Among the data in ChEMBL document CHEMBL4043168, “The design and SAR of a novel series of 2-aminopyridine based LRRK2 inhibitors” (Bioorg Med Chem Lett, 2017) are inhibition values, retold here.

One may read the inhibition as the change of the read-out against control, counted positive when it falls.

For test [1], the target named is Interferon-induced, double-stranded RNA-activated protein kinase (Homo sapiens) (UniProt P19525). In words: Inhibition of PKR activation Loop (IGDFGLVTSLKNDGKR) in human PBMC at 1 uM.
Interferon-induced, double-stranded RNA-activated protein kinase (Homo sapiens), sequence (P19525 whole entry): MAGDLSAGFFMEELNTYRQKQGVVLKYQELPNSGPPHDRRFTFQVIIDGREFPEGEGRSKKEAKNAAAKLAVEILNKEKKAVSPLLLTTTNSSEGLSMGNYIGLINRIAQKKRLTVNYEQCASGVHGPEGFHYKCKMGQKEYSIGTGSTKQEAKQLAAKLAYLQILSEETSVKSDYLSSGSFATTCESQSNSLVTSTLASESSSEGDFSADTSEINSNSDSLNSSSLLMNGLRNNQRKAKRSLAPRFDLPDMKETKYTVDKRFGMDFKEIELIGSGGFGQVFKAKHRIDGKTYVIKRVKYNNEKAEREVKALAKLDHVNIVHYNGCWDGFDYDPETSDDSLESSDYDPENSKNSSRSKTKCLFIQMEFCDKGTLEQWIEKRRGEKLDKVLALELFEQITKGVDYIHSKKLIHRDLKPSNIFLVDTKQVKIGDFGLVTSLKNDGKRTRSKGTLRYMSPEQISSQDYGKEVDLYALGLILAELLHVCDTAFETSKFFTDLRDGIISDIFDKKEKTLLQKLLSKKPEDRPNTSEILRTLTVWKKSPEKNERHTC
The target in test [2] is T1, Serine/threonine-protein kinase 3 (Homo sapiens) (UniProt Q13188).
T1 sequence (whole entry): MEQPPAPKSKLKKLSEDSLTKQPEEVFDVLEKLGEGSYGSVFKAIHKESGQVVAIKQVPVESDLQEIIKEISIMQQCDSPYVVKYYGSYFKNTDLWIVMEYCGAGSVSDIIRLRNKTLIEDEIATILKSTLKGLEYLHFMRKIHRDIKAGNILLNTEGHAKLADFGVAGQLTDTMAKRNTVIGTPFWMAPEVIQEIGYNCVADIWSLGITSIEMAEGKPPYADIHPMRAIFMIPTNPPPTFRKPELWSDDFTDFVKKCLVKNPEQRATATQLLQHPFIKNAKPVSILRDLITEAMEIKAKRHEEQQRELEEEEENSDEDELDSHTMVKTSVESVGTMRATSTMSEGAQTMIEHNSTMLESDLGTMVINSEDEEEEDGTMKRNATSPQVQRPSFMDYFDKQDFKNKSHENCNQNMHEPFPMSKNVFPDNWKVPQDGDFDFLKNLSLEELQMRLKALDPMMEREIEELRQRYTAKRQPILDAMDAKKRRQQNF
In words: Inhibition of MST2 conserved Lys2 (DIKAGNILLNTEGHAK) in human PBMC at 0.1 uM.

The target in test [3] is T2, Mitogen-activated protein kinase kinase kinase 5 (Homo sapiens) (UniProt Q99683).
T2 sequence (whole entry): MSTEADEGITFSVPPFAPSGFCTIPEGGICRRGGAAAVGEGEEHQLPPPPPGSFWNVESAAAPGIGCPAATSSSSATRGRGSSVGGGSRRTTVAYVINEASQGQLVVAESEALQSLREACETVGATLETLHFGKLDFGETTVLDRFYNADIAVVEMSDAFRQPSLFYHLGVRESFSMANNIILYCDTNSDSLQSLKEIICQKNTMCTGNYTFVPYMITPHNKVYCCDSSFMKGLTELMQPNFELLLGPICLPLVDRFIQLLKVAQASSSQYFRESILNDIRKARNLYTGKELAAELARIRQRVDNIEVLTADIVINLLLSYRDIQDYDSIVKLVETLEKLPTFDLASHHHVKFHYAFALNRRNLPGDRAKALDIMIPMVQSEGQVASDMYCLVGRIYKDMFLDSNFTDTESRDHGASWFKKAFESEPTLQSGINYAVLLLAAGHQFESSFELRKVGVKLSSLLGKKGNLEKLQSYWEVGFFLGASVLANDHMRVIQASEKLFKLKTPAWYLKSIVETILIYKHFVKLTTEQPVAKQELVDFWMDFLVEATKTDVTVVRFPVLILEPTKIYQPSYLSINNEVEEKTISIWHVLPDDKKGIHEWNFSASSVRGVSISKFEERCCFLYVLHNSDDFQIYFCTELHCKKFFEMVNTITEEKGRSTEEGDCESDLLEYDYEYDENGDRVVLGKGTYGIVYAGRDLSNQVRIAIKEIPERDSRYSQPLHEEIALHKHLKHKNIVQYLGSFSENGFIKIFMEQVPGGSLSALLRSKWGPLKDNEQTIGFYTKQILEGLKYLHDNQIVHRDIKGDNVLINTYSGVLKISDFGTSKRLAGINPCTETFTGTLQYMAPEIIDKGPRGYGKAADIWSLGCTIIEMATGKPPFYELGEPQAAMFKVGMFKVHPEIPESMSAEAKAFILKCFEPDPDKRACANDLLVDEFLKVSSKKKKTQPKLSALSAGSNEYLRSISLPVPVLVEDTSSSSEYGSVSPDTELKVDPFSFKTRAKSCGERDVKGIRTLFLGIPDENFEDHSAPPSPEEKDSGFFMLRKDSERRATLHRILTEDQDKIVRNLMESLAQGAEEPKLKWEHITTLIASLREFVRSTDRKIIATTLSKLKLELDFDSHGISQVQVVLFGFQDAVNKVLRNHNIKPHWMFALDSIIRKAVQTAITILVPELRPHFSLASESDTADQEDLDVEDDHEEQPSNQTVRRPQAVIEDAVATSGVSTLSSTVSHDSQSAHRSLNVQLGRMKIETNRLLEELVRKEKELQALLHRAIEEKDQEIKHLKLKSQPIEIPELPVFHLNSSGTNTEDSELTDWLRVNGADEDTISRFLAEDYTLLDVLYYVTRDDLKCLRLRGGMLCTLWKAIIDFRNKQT
The test can be described thus: Inhibition of MAP3K5 conserved Lys1 (IAIKEIPER) in human PBMC at 1 uM.

Test [4] concerns the target Ribosomal protein S6 kinase alpha-1 (Homo sapiens) (UniProt Q15418). In words: Inhibition of RSK1 domain1 activation Loop (LTDFGLSKEAIDHEKK) in human PBMC at 0.1 uM.
For test [5], the target named is Ribosomal protein S6 kinase alpha-5 (Homo sapiens) (UniProt O75582). The test can be described thus: Inhibition of MSK1 domain1 conserved Lys2 (DIKLENILLDSNGHVVLTDFGLSK) in human PBMC at 1 uM.
Ribosomal protein S6 kinase alpha-5 (Homo sapiens), sequence (O75582 whole entry, looked up, the tested form may be a part): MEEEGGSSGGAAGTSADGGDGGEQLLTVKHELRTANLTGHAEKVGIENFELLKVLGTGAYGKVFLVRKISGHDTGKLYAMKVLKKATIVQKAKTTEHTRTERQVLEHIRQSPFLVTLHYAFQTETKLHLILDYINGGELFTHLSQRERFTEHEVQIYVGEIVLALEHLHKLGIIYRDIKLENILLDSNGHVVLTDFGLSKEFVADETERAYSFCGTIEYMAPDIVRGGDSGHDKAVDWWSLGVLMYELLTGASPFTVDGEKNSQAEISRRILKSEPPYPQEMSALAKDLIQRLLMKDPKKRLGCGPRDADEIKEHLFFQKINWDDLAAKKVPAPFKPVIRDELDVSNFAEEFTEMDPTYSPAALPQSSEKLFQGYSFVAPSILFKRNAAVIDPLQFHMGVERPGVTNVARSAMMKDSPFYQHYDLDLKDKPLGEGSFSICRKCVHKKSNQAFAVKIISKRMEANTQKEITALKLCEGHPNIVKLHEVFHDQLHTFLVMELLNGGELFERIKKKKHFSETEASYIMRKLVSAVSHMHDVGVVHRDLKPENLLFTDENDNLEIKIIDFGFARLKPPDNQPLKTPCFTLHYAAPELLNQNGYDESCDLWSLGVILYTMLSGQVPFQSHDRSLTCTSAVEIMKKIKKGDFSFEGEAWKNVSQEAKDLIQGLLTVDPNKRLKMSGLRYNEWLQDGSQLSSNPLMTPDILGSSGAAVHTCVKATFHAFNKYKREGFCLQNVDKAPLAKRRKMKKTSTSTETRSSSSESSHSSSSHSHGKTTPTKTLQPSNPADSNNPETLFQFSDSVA
The target of test [6] is Mitogen-activated protein kinase 12 (Homo sapiens) (UniProt P53778). The test can be described thus: Inhibition of p38g conserved Lys2 (DLKPGNLAVNEDCELK) in human PBMC at 1 uM.
In test [7] the target is Protein kinase C alpha type (Homo sapiens) (UniProt P17252). The test can be described thus: Inhibition of PKCa conserved Lys2 (DLKLDNVMLDSEGHIK) in human PBMC at 1 uM.
For test [8], the target named is Dual specificity mitogen-activated protein kinase kinase 3 (Homo sapiens) (UniProt P46734). In words: Inhibition of MAP2K3 conserved Lys2 (DVKPSNVLINK) in human PBMC at 1 uM.
Dual specificity mitogen-activated protein kinase kinase 3 (Homo sapiens), sequence (P46734 whole entry): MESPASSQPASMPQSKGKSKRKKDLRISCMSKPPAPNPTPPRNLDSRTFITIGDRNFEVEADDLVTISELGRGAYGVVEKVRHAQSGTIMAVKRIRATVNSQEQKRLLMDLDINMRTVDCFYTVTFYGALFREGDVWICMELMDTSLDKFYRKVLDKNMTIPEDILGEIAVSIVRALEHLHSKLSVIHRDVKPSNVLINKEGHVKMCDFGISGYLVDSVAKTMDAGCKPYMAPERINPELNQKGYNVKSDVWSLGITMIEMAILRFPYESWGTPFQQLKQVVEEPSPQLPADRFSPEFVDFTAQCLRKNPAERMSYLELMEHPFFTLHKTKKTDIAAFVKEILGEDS
Test [9] deals with Phosphatidylinositol 5-phosphate 4-kinase type-2 gamma (Homo sapiens) (UniProt Q8TBX8). The test can be described thus: Inhibition of PIP4K2C ATP binding site (TLVIKEVSSEDIADMHSNLSNYHQYIVK) in human PBMC at 1 uM.
Phosphatidylinositol 5-phosphate 4-kinase type-2 gamma (Homo sapiens), sequence (Q8TBX8 whole entry): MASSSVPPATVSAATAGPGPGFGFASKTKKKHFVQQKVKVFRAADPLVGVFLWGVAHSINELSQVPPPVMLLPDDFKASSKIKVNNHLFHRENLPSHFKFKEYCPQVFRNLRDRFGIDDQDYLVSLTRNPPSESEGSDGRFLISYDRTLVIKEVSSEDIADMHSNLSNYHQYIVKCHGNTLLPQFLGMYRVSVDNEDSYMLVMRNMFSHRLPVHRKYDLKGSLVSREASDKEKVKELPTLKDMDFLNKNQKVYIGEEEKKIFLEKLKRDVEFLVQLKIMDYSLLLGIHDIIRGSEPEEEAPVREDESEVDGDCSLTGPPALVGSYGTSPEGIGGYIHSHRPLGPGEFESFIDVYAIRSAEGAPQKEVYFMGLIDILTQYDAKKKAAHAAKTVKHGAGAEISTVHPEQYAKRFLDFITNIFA
Test [10] deals with STE20-like serine/threonine-protein kinase (Homo sapiens) (UniProt Q9H2G2). In words: Inhibition of SLK conserved Lys1 (AQNKETSVLAAAKVIDTK) in human PBMC at 1 uM.
STE20-like serine/threonine-protein kinase (Homo sapiens), sequence (Q9H2G2 whole entry, looked up): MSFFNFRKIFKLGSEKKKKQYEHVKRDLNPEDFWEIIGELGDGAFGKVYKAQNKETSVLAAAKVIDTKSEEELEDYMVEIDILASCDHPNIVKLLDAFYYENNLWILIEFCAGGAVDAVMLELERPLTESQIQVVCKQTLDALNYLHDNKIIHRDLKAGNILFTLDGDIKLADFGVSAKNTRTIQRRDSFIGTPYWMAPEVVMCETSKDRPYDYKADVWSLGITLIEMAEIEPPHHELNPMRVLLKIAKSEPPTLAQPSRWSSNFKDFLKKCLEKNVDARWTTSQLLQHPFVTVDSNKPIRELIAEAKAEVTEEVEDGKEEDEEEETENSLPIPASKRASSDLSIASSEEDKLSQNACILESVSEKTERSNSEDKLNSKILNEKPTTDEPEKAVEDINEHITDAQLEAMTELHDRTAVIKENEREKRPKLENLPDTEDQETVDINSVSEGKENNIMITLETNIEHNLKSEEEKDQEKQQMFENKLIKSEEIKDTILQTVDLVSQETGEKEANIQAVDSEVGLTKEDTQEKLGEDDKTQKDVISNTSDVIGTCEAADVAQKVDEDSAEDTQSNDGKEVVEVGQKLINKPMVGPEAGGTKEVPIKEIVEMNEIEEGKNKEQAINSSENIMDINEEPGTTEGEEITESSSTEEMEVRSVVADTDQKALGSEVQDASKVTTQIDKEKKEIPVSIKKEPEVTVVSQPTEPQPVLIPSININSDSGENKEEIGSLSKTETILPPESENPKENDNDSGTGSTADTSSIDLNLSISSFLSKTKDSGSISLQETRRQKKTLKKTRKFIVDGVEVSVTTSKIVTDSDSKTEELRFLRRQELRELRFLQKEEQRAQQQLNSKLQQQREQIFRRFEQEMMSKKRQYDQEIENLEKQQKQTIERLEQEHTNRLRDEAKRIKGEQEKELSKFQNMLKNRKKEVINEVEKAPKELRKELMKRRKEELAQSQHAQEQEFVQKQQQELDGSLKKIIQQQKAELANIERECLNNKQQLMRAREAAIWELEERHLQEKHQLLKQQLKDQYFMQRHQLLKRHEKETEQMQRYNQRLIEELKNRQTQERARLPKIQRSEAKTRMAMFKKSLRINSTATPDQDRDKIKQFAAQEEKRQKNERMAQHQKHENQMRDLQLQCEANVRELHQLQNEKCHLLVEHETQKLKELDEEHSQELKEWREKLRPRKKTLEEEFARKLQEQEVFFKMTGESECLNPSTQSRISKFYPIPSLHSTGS

Ribosomal protein S6 kinase alpha-1 (Homo sapiens), sequence (Q15418 whole entry, the tested form may be a part): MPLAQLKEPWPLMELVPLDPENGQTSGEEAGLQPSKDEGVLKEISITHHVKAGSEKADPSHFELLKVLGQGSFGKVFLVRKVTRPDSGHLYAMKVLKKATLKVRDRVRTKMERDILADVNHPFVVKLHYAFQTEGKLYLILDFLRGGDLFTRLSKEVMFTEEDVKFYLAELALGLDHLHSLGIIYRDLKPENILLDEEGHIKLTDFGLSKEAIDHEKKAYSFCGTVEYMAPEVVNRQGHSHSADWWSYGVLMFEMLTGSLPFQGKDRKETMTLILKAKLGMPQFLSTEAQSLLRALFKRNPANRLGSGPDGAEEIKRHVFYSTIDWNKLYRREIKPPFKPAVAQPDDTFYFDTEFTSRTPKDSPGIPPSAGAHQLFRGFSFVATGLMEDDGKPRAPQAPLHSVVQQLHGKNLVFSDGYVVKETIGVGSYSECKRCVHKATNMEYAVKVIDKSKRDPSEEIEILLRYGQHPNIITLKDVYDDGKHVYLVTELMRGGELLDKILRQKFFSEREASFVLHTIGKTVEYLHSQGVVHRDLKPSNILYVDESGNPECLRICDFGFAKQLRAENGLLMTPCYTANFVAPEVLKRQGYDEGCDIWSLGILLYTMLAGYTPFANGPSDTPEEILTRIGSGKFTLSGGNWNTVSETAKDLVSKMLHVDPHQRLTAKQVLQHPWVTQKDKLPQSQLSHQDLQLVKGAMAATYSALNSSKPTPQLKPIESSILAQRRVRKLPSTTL

Consider `CC(C)n1cc(-c2cc(-c3ccc(CN4CCOCC4)cc3)cnc2N)nn1`, for which the inhibition was -3.7% in test [1]; 1.3% in test [2]; -3.3% in test [3]; 17.2% in test [4]; 9.8% in test [5]; 14% in test [6]. For the same molecule, the inhibition is -7.4% in test [7], -9.2% in test [8], 6.4% in test [9] and 0.3% in [10].
